In brackets after ≈: the same amount, converted by molar mass.
Columns and labels:
HepG2 = test: Cytotoxicity against human HepG2 cells assessed as reduced cell viability at 4 ug/ml measured after 16 hrs by MTT assay; format: cell-based; details: hepg2, 16 h, dose 4 µg/ml
Staphylococcus aureus [1] = test: Antibacterial activity against Staphylococcus aureus AD3 assessed as inhibition of bacterial growth measured after 24 hrs by broth dilution method; format: functional
Staphylococcus aureus [2] = test: Bactericidal activity against Staphylococcus aureus AD3 assessed as inhibition of bacterial growth measured after 96 hrs by broth dilution method; format: functional
Staphylococcus aureus [3] = test: Bactericidal activity against Staphylococcus aureus 144 assessed as inhibition of bacterial growth measured after 96 hrs by broth dilution method; format: functional
Escherichia coli [4] = test: Bactericidal activity against Escherichia coli ATCC 25922 assessed as inhibition of bacterial growth measured after 96 hrs by broth dilution method; format: functional
Staphylococcus aureus [5] = test: Antibacterial activity against Methycillin-resistant Staphylococcus aureus ATCC 43300 assessed as inhibition of bacterial growth measured after 24 hrs by broth dilution method; format: functional
Staphylococcus aureus [6] = test: Antibacterial activity against Staphylococcus aureus 144 assessed as inhibition of bacterial growth measured after 24 hrs by broth dilution method; format: functional
Escherichia coli [7] = test: Antibacterial activity against Escherichia coli ATCC 25922 assessed as inhibition of bacterial growth measured after 24 hrs by broth dilution method; format: functional
Staphylococcus aureus [8] = test: Bactericidal activity against Methycillin-resistant Staphylococcus aureus ATCC 43300 assessed as inhibition of bacterial growth measured after 96 hrs by broth dilution method; format: functional
Staphylococcus aureus [9] = test: Bactericidal activity against Staphylococcus aureus ATCC 29213 assessed as inhibition of bacterial growth measured after 96 hrs by broth dilution method; format: functional
RAW264.7 = test: Cytotoxicity against mouse RAW264.7 cells assessed as reduced cell viability at 4 ug/ml measured after 16 hrs by MTT assay; format: cell-based; details: raw264.7, 16 h, dose 4 µg/ml
Staphylococcus aureus [10] = test: Antibacterial activity against Staphylococcus aureus ATCC 29213 assessed as inhibition of bacterial growth measured after 24 hrs by broth dilution method; format: functional

Row | SMILES | Activity (HepG2) | MIC (Staphylococcus aureus [1]) [µg/mL] | MBC (Staphylococcus aureus [2]) [µg/mL] | MBC (Staphylococcus aureus [3]) [µg/mL] | MBC (Escherichia coli [4]) [µg/mL] | MIC (Staphylococcus aureus [5]) [µg/mL] | MIC (Staphylococcus aureus [6]) [µg/mL] | MIC (Escherichia coli [7]) [µg/mL] | MBC (Staphylococcus aureus [8]) [µg/mL] | MBC (Staphylococcus aureus [9]) [µg/mL] | Activity (RAW264.7) | MIC (Staphylococcus aureus [10]) [µg/mL]
1 | C=C[C@]1(C)C[C@@H](OC(=O)CSc2nnc(C)n2/N=C/c2cccc(O)c2)[C@]2(C)[C@H](C)CC[C@]3(CCC(=O)[C@H]32)[C@@H](C)[C@@H]1O | Non-Toxic | 1 (≈ 1.68 µM) | 4 (≈ 6.73 µM) | 4 (≈ 6.73 µM) | > 64 | 0.5 (≈ 0.841 µM) | 2 (≈ 3.36 µM) | > 64 | 1 (≈ 1.68 µM) | 2 (≈ 3.36 µM) | Non-Toxic | 0.5 (≈ 0.841 µM)
2 | C=C[C@]1(C)C[C@@H](OC(=O)CSc2nnc(C)n2/N=C/c2ccc(N3CCCC3)cc2)[C@]2(C)[C@H](C)CC[C@]3(CCC(=O)[C@H]32)[C@@H](C)[C@@H]1O | Non-Toxic | 2 (≈ 3.09 µM) | 4 (≈ 6.17 µM) | 4 (≈ 6.17 µM) | > 64 | 1 (≈ 1.54 µM) | 2 (≈ 3.09 µM) | > 64 | 2 (≈ 3.09 µM) | 4 (≈ 6.17 µM) | Non-Toxic | 2 (≈ 3.09 µM)
3 | C=C[C@]1(C)C[C@@H](OC(=O)CSc2nnc(C)n2/N=C/c2ccccc2F)[C@]2(C)[C@H](C)CC[C@]3(CCC(=O)[C@H]32)[C@@H](C)[C@@H]1O | Non-Toxic | 1 (≈ 1.68 µM) | 4 (≈ 6.7 µM) | 4 (≈ 6.7 µM) | > 64 | 0.5 (≈ 0.838 µM) | 2 (≈ 3.35 µM) | > 64 | 1 (≈ 1.68 µM) | 2 (≈ 3.35 µM) | Non-Toxic | 1 (≈ 1.68 µM)
4 | C=C[C@]1(C)C[C@@H](OC(=O)CSc2nnc(C)n2/N=C/c2cccc(C(F)(F)F)c2)[C@]2(C)[C@H](C)CC[C@]3(CCC(=O)[C@H]32)[C@@H](C)[C@@H]1O | Non-Toxic | 2 (≈ 3.09 µM) | 4 (≈ 6.18 µM) | 4 (≈ 6.18 µM) | > 64 | 2 (≈ 3.09 µM) | 4 (≈ 6.18 µM) | > 64 | 4 (≈ 6.18 µM) | 4 (≈ 6.18 µM) | Non-Toxic | 2 (≈ 3.09 µM)
5 | C=C[C@]1(C)C[C@@H](OC(=O)CSc2nnc(C)n2/N=C/c2ccc(N(CC)CC)cc2)[C@]2(C)[C@H](C)CC[C@]3(CCC(=O)[C@H]32)[C@@H](C)[C@@H]1O | Non-Toxic | 4 (≈ 6.15 µM) | 16 (≈ 24.6 µM) | 8 (≈ 12.3 µM) | > 64 | 4 (≈ 6.15 µM) | 4 (≈ 6.15 µM) | > 64 | 4 (≈ 6.15 µM) | 8 (≈ 12.3 µM) | Non-Toxic | 4 (≈ 6.15 µM)
6 | C=C[C@]1(C)C[C@@H](OC(=O)CSc2nnc(C)n2/N=C/c2ccccc2C)[C@]2(C)[C@H](C)CC[C@]3(CCC(=O)[C@H]32)[C@@H](C)[C@@H]1O | Non-Toxic | 1 (≈ 1.69 µM) | 4 (≈ 6.75 µM) | 4 (≈ 6.75 µM) | > 64 | 1 (≈ 1.69 µM) | 2 (≈ 3.37 µM) | > 64 | 2 (≈ 3.37 µM) | 2 (≈ 3.37 µM) | Non-Toxic | 1 (≈ 1.69 µM)
7 | C=C[C@]1(C)C[C@@H](OC(=O)CSc2nnc(C)n2/N=C/c2cccc(C)c2)[C@]2(C)[C@H](C)CC[C@]3(CCC(=O)[C@H]32)[C@@H](C)[C@@H]1O | Non-Toxic | 1 (≈ 1.69 µM) | 4 (≈ 6.75 µM) | 4 (≈ 6.75 µM) | > 64 | 1 (≈ 1.69 µM) | 2 (≈ 3.37 µM) | > 64 | 2 (≈ 3.37 µM) | 2 (≈ 3.37 µM) | Non-Toxic | 1 (≈ 1.69 µM)
8 | C=C[C@]1(C)C[C@@H](OC(=O)CSc2nnc(C)n2/N=C/c2cccc(C#N)c2)[C@]2(C)[C@H](C)CC[C@]3(CCC(=O)[C@H]32)[C@@H](C)[C@@H]1O | Non-Toxic | 2 (≈ 3.31 µM) | 8 (≈ 13.2 µM) | 4 (≈ 6.62 µM) | > 64 | 1 (≈ 1.66 µM) | 2 (≈ 3.31 µM) | > 64 | 2 (≈ 3.31 µM) | 4 (≈ 6.62 µM) | Non-Toxic | 1 (≈ 1.66 µM)
9 | C=C[C@]1(C)C[C@@H](OC(=O)CSc2nnc(C)n2/N=C/c2cccc(Cl)c2)[C@]2(C)[C@H](C)CC[C@]3(CCC(=O)[C@H]32)[C@@H](C)[C@@H]1O | Non-Toxic | 2 (≈ 3.26 µM) | 4 (≈ 6.52 µM) | 4 (≈ 6.52 µM) | > 64 | 1 (≈ 1.63 µM) | 2 (≈ 3.26 µM) | > 64 | 2 (≈ 3.26 µM) | 4 (≈ 6.52 µM) | Non-Toxic | 1 (≈ 1.63 µM)
10 | C=C[C@]1(C)C[C@@H](OC(=O)CSc2nnc(C)n2/N=C/c2ccc(N3CCOCC3)cc2)[C@]2(C)[C@H](C)CC[C@]3(CCC(=O)[C@H]32)[C@@H](C)[C@@H]1O | Non-Toxic | 1 (≈ 1.51 µM) | 4 (≈ 6.03 µM) | 4 (≈ 6.03 µM) | > 64 | 0.5 (≈ 0.753 µM) | 2 (≈ 3.01 µM) | > 64 | 1 (≈ 1.51 µM) | 2 (≈ 3.01 µM) | Non-Toxic | 1 (≈ 1.51 µM)
11 | C=C[C@]1(C)C[C@@H](OC(=O)CSc2nnc(C)n2/N=C/c2ccc(C#N)cc2)[C@]2(C)[C@H](C)CC[C@]3(CCC(=O)[C@H]32)[C@@H](C)[C@@H]1O | Non-Toxic | 2 (≈ 3.31 µM) | 4 (≈ 6.62 µM) | 4 (≈ 6.62 µM) | > 64 | 1 (≈ 1.66 µM) | 2 (≈ 3.31 µM) | > 64 | 4 (≈ 6.62 µM) | 4 (≈ 6.62 µM) | Non-Toxic | 1 (≈ 1.66 µM)
12 | C=C[C@]1(C)C[C@@H](OC(=O)CSc2nnc(C)n2/N=C/c2cccc([N+](=O)[O-])c2)[C@]2(C)[C@H](C)CC[C@]3(CCC(=O)[C@H]32)[C@@H](C)[C@@H]1O | Non-Toxic | 2 (≈ 3.21 µM) | 8 (≈ 12.8 µM) | 4 (≈ 6.41 µM) | > 64 | 1 (≈ 1.6 µM) | 2 (≈ 3.21 µM) | > 64 | 2 (≈ 3.21 µM) | 8 (≈ 12.8 µM) | Non-Toxic | 2 (≈ 3.21 µM)
13 | C=C[C@]1(C)C[C@@H](OC(=O)CO)[C@]2(C)[C@H](C)CC[C@]3(CCC(=O)[C@H]32)[C@@H](C)[C@@H]1O [PLEUROMULIN] |  | 2 (≈ 5.28 µM) | 4 (≈ 10.6 µM) | 4 (≈ 10.6 µM) | > 64 | 2 (≈ 5.28 µM) | 2 (≈ 5.28 µM) | > 64 | 4 (≈ 10.6 µM) | 4 (≈ 10.6 µM) |  | 2 (≈ 5.28 µM)
14 | C=C[C@]1(C)C[C@@H](OC(=O)CSc2nnc(C)n2/N=C/c2ccc(Cl)cc2)[C@]2(C)[C@H](C)CC[C@]3(CCC(=O)[C@H]32)[C@@H](C)[C@@H]1O | Non-Toxic | 1 (≈ 1.63 µM) | 4 (≈ 6.52 µM) | 4 (≈ 6.52 µM) | > 64 | 0.5 (≈ 0.815 µM) | 2 (≈ 3.26 µM) | > 64 | 2 (≈ 3.26 µM) | 2 (≈ 3.26 µM) | Non-Toxic | 1 (≈ 1.63 µM)
15 | C=C[C@]1(C)C[C@@H](OC(=O)CSc2nnc(C)n2/N=C/c2ccc(N(C)C)cc2)[C@]2(C)[C@H](C)CC[C@]3(CCC(=O)[C@H]32)[C@@H](C)[C@@H]1O | Non-Toxic | 1 (≈ 1.61 µM) | 4 (≈ 6.43 µM) | 4 (≈ 6.43 µM) | > 64 | 0.5 (≈ 0.804 µM) | 2 (≈ 3.22 µM) | > 64 | 1 (≈ 1.61 µM) | 2 (≈ 3.22 µM) | Non-Toxic | 0.5 (≈ 0.804 µM)
16 | C=C[C@]1(C)C[C@@H](OC(=O)CSc2nnc(C)n2/N=C/c2ccccc2[N+](=O)[O-])[C@]2(C)[C@H](C)CC[C@]3(CCC(=O)[C@H]32)[C@@H](C)[C@@H]1O | Non-Toxic | 2 (≈ 3.21 µM) | 8 (≈ 12.8 µM) | 8 (≈ 12.8 µM) | > 64 | 0.5 (≈ 0.802 µM) | 2 (≈ 3.21 µM) | > 64 | 1 (≈ 1.6 µM) | 4 (≈ 6.41 µM) | Non-Toxic | 1 (≈ 1.6 µM)
17 | C=C[C@]1(C)C[C@@H](OC(=O)CSc2nnc(C)n2/N=C/c2cccc(F)c2)[C@]2(C)[C@H](C)CC[C@]3(CCC(=O)[C@H]32)[C@@H](C)[C@@H]1O | Non-Toxic | 1 (≈ 1.68 µM) | 4 (≈ 6.7 µM) | 4 (≈ 6.7 µM) | > 64 | 0.5 (≈ 0.838 µM) | 2 (≈ 3.35 µM) | > 64 | 1 (≈ 1.68 µM) | 4 (≈ 6.7 µM) | Non-Toxic | 1 (≈ 1.68 µM)
18 | C=C[C@]1(C)C[C@@H](OC(=O)CSc2nnc(C)n2/N=C/c2ccc([N+](=O)[O-])cc2)[C@]2(C)[C@H](C)CC[C@]3(CCC(=O)[C@H]32)[C@@H](C)[C@@H]1O | Non-Toxic | 2 (≈ 3.21 µM) | 8 (≈ 12.8 µM) | 8 (≈ 12.8 µM) | > 64 | 1 (≈ 1.6 µM) | 2 (≈ 3.21 µM) | > 64 | 2 (≈ 3.21 µM) | 4 (≈ 6.41 µM) | Non-Toxic | 2 (≈ 3.21 µM)
19 | C=C[C@]1(C)C[C@@H](OC(=O)CSc2nnc(C)n2/N=C/c2ccccc2)[C@]2(C)[C@H](C)CC[C@]3(CCC(=O)[C@H]32)[C@@H](C)[C@@H]1O | Non-Toxic | 1 (≈ 1.73 µM) | 4 (≈ 6.91 µM) | 4 (≈ 6.91 µM) | > 64 | 0.5 (≈ 0.864 µM) | 2 (≈ 3.46 µM) | > 64 | 1 (≈ 1.73 µM) | 2 (≈ 3.46 µM) | Non-Toxic | 1 (≈ 1.73 µM)
